Laboratory results taken from US12139520B2 (priority 2020, dated 2024).
Numbered stars: 1 amine (or outer) side, 2 acyl side, 3 side chain; on linkers, the order of the positions; unused ones are H or OH. Bridge positions count the residues as written; N and C are the ends. Square brackets hold non-standard residues; d marks the D form. Side chains are listed from the residue outwards. Peptide text beside a SMILES is read from it. * marks the point of attachment. C20 diacid = O=C(O)CCCCCCCCCCCCCCCCCCC(=O)*; γGlu = O=C(O)[C@H](CCC(=O)[*:2])N[*:1]; Hyp = O=C(O)[C@@H]1C[C@@H](O)CN1; AEEA = NCCOCCOCC(=O)O

Key:
hAMY3 receptor = target: T1, hAMY3 receptor (Homo sapiens, UniProt O60896+P30988); test: cAMP assay for in vitro receptor activation, hAMY3-R; format: cell-based; settings: cAMP assay, hAMY3 receptor; read-out: hAMY3R EC50
T1 sequence (P30988 25-474): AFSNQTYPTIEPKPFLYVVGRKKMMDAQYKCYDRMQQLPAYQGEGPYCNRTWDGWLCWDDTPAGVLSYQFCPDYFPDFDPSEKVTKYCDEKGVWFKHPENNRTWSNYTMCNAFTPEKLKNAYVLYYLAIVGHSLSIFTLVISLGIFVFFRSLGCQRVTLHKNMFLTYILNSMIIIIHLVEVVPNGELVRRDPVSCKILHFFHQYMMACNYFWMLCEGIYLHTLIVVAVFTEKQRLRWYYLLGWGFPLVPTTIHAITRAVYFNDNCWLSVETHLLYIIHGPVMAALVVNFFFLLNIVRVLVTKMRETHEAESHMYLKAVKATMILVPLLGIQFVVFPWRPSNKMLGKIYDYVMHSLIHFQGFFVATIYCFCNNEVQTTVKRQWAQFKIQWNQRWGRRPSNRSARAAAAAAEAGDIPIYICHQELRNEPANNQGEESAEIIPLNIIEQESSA
T1 sequence (O60896 24-148 partner): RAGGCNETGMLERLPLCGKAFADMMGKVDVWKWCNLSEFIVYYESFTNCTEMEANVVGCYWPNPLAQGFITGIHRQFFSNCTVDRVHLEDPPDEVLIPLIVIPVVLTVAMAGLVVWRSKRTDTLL
Outline: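 Monoclonal cell line stably overexpressing hAMY3 receptor, plated in DPBS with 0.05% casein and 0.5 mM IBMX, was stimulated with graded compound doses for 30 min at room temperature. cAMP accumulation was read by time-resolved FRET one hour after adding detection reagents.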

hAM1 receptor = hAM1 receptor (Homo sapiens, UniProt O60895+Q16602); test: cAMP assay for in vitro receptor activation, hAM1-R; format: cell-based; settings: cAMP assay, hAM1 receptor; read-out: hAM1R EC50
Sequence of hAM1 receptor (Q16602 23-461): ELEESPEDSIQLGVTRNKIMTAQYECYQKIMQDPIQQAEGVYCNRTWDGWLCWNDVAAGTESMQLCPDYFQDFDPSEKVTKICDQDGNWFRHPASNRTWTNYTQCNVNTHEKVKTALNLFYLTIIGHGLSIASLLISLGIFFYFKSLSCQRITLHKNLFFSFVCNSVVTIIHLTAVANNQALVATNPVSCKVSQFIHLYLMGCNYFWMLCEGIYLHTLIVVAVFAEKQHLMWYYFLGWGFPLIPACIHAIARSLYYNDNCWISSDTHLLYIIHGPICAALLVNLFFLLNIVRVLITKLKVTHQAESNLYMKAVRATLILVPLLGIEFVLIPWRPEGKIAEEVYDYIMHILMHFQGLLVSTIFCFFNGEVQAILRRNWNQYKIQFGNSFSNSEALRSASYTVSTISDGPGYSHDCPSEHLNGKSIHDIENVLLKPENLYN
Sequence of hAM1 receptor (O60895 43-175 partner): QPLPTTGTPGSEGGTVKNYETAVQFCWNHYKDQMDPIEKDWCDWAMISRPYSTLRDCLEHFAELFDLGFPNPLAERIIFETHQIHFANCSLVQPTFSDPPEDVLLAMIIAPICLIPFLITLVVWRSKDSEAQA
Outline: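 Read-out is intracellular cAMP as a measure of receptor activation. Cells stably overexpressing hAM1 were subcloned to a monoclonal line, then thawed and seeded at 8000 cells/well in DPBS with 0.05% casein and the phosphodiesterase inhibitor IBMX at 0.5 mM.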

Compound	EC50 (hAMY3 receptor)	EC50 (hAM1 receptor)
CC[C@H](C)[C@H](NC(=O)[C@H](CCC(N)=O)NC(=O)[C@H](CCC(=O)O)NC(=O)[C@H](C)NC(=O)[C@H](CC(C)C)NC(=O)[C@H](CCCNC(=N)N)NC(=O)[C@H](CCC(N)=O)NC(=O)[C@@H](NC(=O)[C@@H](NC(=O)[C@@H]1CSSC[C@H](NC(=O)[C@H](CCCCN)NC(=O)CC[C@H](NC(=O)CCCCCCCCCCCCCCCCCCC(=O)O)C(=O)O)C(=O)N[C@@H](CC(N)=O)C(=O)N[C@@H]([C@@H](C)O)C(=O)N[C@@H](C)C(=O)N[C@@H]([C@@H](C)O)C(=O)N1)[C@@H](C)O)C(C)C)C(=O)N[C@@H](Cc1ccc(O)cc1)C(=O)N[C@@H](CCC(N)=O)C(=O)N[C@@H](Cc1ccccc1)C(=O)N[C@H](C(=O)N[C@@H](CC(=O)O)C(=O)N[C@@H](CCCCN)C(=O)N[C@@H](CC(=O)O)C(=O)N[C@@H](CCCCN)C(=O)N[C@@H](CC(=O)O)C(=O)N[C@@H](CC(N)=O)C(=O)N[C@H](C(=O)N[C@@H](C)C(=O)N1CCC[C@H]1C(=O)N1CCC[C@H]1C(=O)N[C@H](C(=O)N[C@@H](C)C(=O)N[C@H](C(=O)NCC(=O)N[C@@H](CO)C(=O)N[C@@H](CC(N)=O)C(=O)NCC(=O)N1C[C@H](O)C[C@H]1C(N)=O)C(C)C)[C@@H](C)O)C(C)C)[C@@H](C)O [compound 63] ({C20 diacid-γGlu}-KCNTATCTVQRLAEQIYQFTDKDKDNVAPPTAVGSNG[Hyp]-NH2; disulfide 2-7)	0.012 nM	> 5000 nM
CC[C@H](C)[C@H](NC(=O)[C@H](CCC(N)=O)NC(=O)[C@H](Cc1c[nH]cn1)NC(=O)[C@H](C)NC(=O)[C@H](CC(C)C)NC(=O)[C@H](CCCNC(=N)N)NC(=O)[C@H](CCC(N)=O)NC(=O)[C@@H](NC(=O)[C@@H](NC(=O)[C@@H]1CSSC[C@H](NC(=O)[C@H](CCCCN)NC(=O)CC[C@H](NC(=O)CCCCCCCCCCCCCCCCCCC(=O)O)C(=O)O)C(=O)N[C@@H](CC(N)=O)C(=O)N[C@@H]([C@@H](C)O)C(=O)N[C@@H](CO)C(=O)N[C@@H]([C@@H](C)O)C(=O)N1)[C@@H](C)O)C(C)C)C(=O)N[C@@H](C)C(=O)N[C@@H](CCC(N)=O)C(=O)N[C@@H](Cc1ccccc1)C(=O)N[C@H](C(=O)N[C@@H](CC(=O)O)C(=O)N[C@@H](CCCCN)C(=O)N[C@@H](CC(=O)O)C(=O)N[C@@H](CCCCN)C(=O)N[C@@H](CC(=O)O)C(=O)N[C@@H](CC(N)=O)C(=O)N[C@H](C(=O)N[C@@H](C)C(=O)N1CCC[C@H]1C(=O)N1CCC[C@H]1C(=O)N[C@H](C(=O)N[C@@H](CC(N)=O)C(=O)N[C@H](C(=O)NCC(=O)N[C@@H](CO)C(=O)N[C@@H](CC(N)=O)C(=O)NCC(=O)N1C[C@H](O)C[C@H]1C(N)=O)C(C)C)[C@@H](C)O)C(C)C)[C@@H](C)O [compound 62] ({C20 diacid-γGlu}-KCNTSTCTVQRLAHQIAQFTDKDKDNVAPPTNVGSNG[Hyp]-NH2; disulfide 2-7)	0.012 nM	> 5000 nM

The remaining lines, values ahead:

EC50 (hAMY3 receptor)	EC50 (hAM1 receptor)	Compound
0.013 nM	> 5000 nM	CC[C@H](C)[C@H](NC(=O)[C@H](CCC(N)=O)NC(=O)[C@H](CCCCNC(=O)COCCOCCNC(=O)COCCOCCNC(=O)CC[C@H](NC(=O)CCCCCCCCCCCCCCCCCCC(=O)O)C(=O)O)NC(=O)[C@H](C)NC(=O)[C@H](CC(C)C)NC(=O)[C@H](CCCNC(=N)N)NC(=O)[C@H](CCC(N)=O)NC(=O)[C@@H](NC(=O)[C@@H](NC(=O)[C@@H]1CSSC[C@H](NC(=O)[C@@H](N)CCCCN)C(=O)N[C@@H](CC(N)=O)C(=O)N[C@@H]([C@@H](C)O)C(=O)N[C@@H](C)C(=O)N[C@@H]([C@@H](C)O)C(=O)N1)[C@@H](C)O)C(C)C)C(=O)N[C@@H](Cc1ccc(O)cc1)C(=O)N[C@@H](CCC(N)=O)C(=O)N[C@@H](Cc1ccccc1)C(=O)N[C@H](C(=O)N[C@@H](CC(=O)O)C(=O)N[C@@H](CCCCN)C(=O)N[C@@H](CC(=O)O)C(=O)N[C@@H](CCCCN)C(=O)N[C@@H](CC(=O)O)C(=O)N[C@@H](CC(N)=O)C(=O)N[C@H](C(=O)N[C@@H](C)C(=O)N1CCC[C@H]1C(=O)N1CCC[C@H]1C(=O)N[C@H](C(=O)N[C@@H](CC(N)=O)C(=O)N[C@H](C(=O)NCC(=O)N[C@@H](CO)C(=O)N[C@@H](CC(N)=O)C(=O)NCC(=O)N1C[C@H](O)C[C@H]1C(N)=O)C(C)C)[C@@H](C)O)C(C)C)[C@@H](C)O [compound 74] (H-KCNTATCTVQRLAK([AEEA-AEEA-γGlu-C20 diacid])QIYQFTDKDKDNVAPPTNVGSNG[Hyp]-NH2; disulfide 2-7; N-terminus assumed)
0.018 nM	> 5000 nM	CC[C@H](C)[C@H](NC(=O)[C@H](CCC(N)=O)NC(=O)[C@H](Cc1c[nH]cn1)NC(=O)[C@H](C)NC(=O)[C@H](CC(C)C)NC(=O)[C@H](CCCNC(=N)N)NC(=O)[C@@H](NC(=O)[C@@H](NC(=O)[C@@H](NC(=O)[C@@H]1CSSC[C@H](NC(=O)[C@H](CCCCN)NC(=O)CC[C@H](NC(=O)CCCCCCCCCCCCCCCCCCC(=O)O)C(=O)O)C(=O)N[C@@H](CC(N)=O)C(=O)N[C@@H]([C@@H](C)O)C(=O)N[C@@H](C)C(=O)N[C@@H]([C@@H](C)O)C(=O)N1)[C@@H](C)O)C(C)C)C(C)C)C(=O)N[C@@H](Cc1ccc(O)cc1)C(=O)N[C@@H](CCC(N)=O)C(=O)N[C@@H](Cc1ccccc1)C(=O)N[C@H](C(=O)N[C@@H](CC(=O)O)C(=O)N[C@@H](CCCCN)C(=O)N[C@@H](CC(=O)O)C(=O)N[C@@H](CCCCN)C(=O)N[C@@H](CC(=O)O)C(=O)N[C@@H](CC(N)=O)C(=O)N[C@H](C(=O)N[C@@H](C)C(=O)N1CCC[C@H]1C(=O)N1CCC[C@H]1C(=O)N[C@H](C(=O)N[C@@H](CC(N)=O)C(=O)N[C@H](C(=O)NCC(=O)N[C@@H](CO)C(=O)N[C@@H](CC(N)=O)C(=O)NCC(=O)N1C[C@H](O)C[C@H]1C(N)=O)C(C)C)[C@@H](C)O)C(C)C)[C@@H](C)O [compound 103] ({C20 diacid-γGlu}-KCNTATCTVVRLAHQIYQFTDKDKDNVAPPTNVGSNG[Hyp]-NH2; disulfide 2-7)
0.03 nM	> 5000 nM	CC[C@H](C)[C@H](NC(=O)[C@H](CCC(N)=O)NC(=O)[C@H](Cc1c[nH]cn1)NC(=O)[C@H](C)NC(=O)[C@H](CC(C)C)NC(=O)[C@H](CCCNC(=N)N)NC(=O)[C@H](CC(=O)O)NC(=O)[C@@H](NC(=O)[C@@H](NC(=O)[C@@H]1CSSC[C@H](NC(=O)[C@H](CCCCN)NC(=O)CC[C@H](NC(=O)CCCCCCCCCCCCCCCCCCC(=O)O)C(=O)O)C(=O)N[C@@H](CC(N)=O)C(=O)N[C@@H]([C@@H](C)O)C(=O)N[C@@H](C)C(=O)N[C@@H]([C@@H](C)O)C(=O)N1)[C@@H](C)O)C(C)C)C(=O)N[C@@H](C)C(=O)N[C@@H](CCC(N)=O)C(=O)N[C@@H](Cc1ccccc1)C(=O)N[C@H](C(=O)N[C@@H](CC(=O)O)C(=O)N[C@@H](CCCCN)C(=O)N[C@@H](CC(=O)O)C(=O)N[C@@H](CCCCN)C(=O)N[C@@H](CC(=O)O)C(=O)N1CCC[C@H]1C(=O)N[C@H](C(=O)N[C@@H](C)C(=O)N1CCC[C@H]1C(=O)N1CCC[C@H]1C(=O)N[C@H](C(=O)N[C@@H](CC(N)=O)C(=O)N[C@H](C(=O)NCC(=O)N[C@@H](CO)C(=O)N[C@@H](CC(N)=O)C(=O)NCC(=O)N1C[C@H](O)C[C@H]1C(N)=O)C(C)C)[C@@H](C)O)C(C)C)[C@@H](C)O [compound 130] ({C20 diacid-γGlu}-KCNTATCTVDRLAHQIAQFTDKDKDPVAPPTNVGSNG[Hyp]-NH2; disulfide 2-7)
0.031 nM	> 5000 nM	CC[C@H](C)[C@H](NC(=O)[C@H](CCC(N)=O)NC(=O)[C@H](CCC(=O)O)NC(=O)[C@H](C)NC(=O)[C@H](CC(C)C)NC(=O)[C@H](CCCNC(=N)N)NC(=O)[C@H](C)NC(=O)[C@@H](NC(=O)[C@@H](NC(=O)[C@@H]1CSSC[C@H](NC(=O)[C@H](CCCCN)NC(=O)CC[C@H](NC(=O)CCCCCCCCCCCCCCCCCCC(=O)O)C(=O)O)C(=O)N[C@@H](CC(N)=O)C(=O)N[C@@H]([C@@H](C)O)C(=O)N[C@@H](C)C(=O)N[C@@H]([C@@H](C)O)C(=O)N1)[C@@H](C)O)C(C)C)C(=O)N[C@@H](Cc1ccc(O)cc1)C(=O)N[C@@H](CCC(N)=O)C(=O)N[C@@H](Cc1ccccc1)C(=O)N[C@H](C(=O)N[C@@H](CC(=O)O)C(=O)N[C@@H](CCCCN)C(=O)N[C@@H](CC(=O)O)C(=O)N[C@@H](CCCCN)C(=O)N[C@@H](CC(=O)O)C(=O)N1CCC[C@H]1C(=O)N[C@H](C(=O)N[C@@H](C)C(=O)N1CCC[C@H]1C(=O)N1CCC[C@H]1C(=O)N[C@H](C(=O)N[C@@H](CC(N)=O)C(=O)N[C@H](C(=O)NCC(=O)N[C@@H](CO)C(=O)N[C@@H](CC(N)=O)C(=O)NCC(=O)N1C[C@H](O)C[C@H]1C(N)=O)C(C)C)[C@@H](C)O)C(C)C)[C@@H](C)O [compound 133] ({C20 diacid-γGlu}-KCNTATCTVARLAEQIYQFTDKDKDPVAPPTNVGSNG[Hyp]-NH2; disulfide 2-7)
